From PubChem BioAssay (NCI)
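Dose response: 5 concentrations. Exposure: 48 h. Format: 96-well plates. Endpoint: linear interpolation; highest concentration if not reached. At the TGI there is no net growth.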

Columns and labels:
Assay in all cases: NCI tumour cell line growth inhibition, 48 h
[1] = system: 786-0 renal
[2] = system: A549 NSCLC
[3] = system: ACHN renal
[4] = system: BT-549 breast
[5] = system: CAKI-1 renal
[6] = system: CCRF-CEM leukemia
[7] = system: COLO 205 colon
[8] = system: DU-145 prostate
[9] = system: EKVX NSCLC
[10] = system: HCC-2998 colon
[11] = system: HCT-116 colon
[12] = system: HCT-15 colon
[13] = system: HL-60(TB) leukemia
[14] = system: HOP-62 NSCLC
[15] = system: HOP-92 NSCLC
[16] = system: HS 578T breast
[17] = system: HT29 colon
[18] = system: IGROV1 ovarian
[19] = system: K-562 leukemia
[20] = system: KM12 colon
[21] = system: LOX IMVI melanoma
[22] = system: M14 melanoma
[23] = system: MALME-3M melanoma
[24] = system: MCF7 breast
[25] = system: MDA-MB-231 breast
[26] = system: MDA-MB-435
[27] = system: MDA-N
[28] = system: MOLT-4 leukemia
[29] = system: NCI-H226 lung
[30] = system: NCI-H23 lung
[31] = system: NCI-H460 lung
[32] = system: NCI-H522 lung
[33] = system: NCI/ADR-RES ovarian
[34] = system: OVCAR-3 ovarian
[35] = system: OVCAR-4 ovarian
[36] = system: OVCAR-5 ovarian
[37] = system: OVCAR-8 ovarian
[38] = system: PC-3 prostate
[39] = system: RPMI-8226 leukemia
[40] = system: RXF 393 renal
[41] = system: SF-268 CNS
[42] = system: SF-295 CNS
[43] = system: SF-539 CNS
[44] = system: SK-MEL-2 melanoma
[45] = system: SK-MEL-28 melanoma
[46] = system: SK-MEL-5 melanoma
[47] = system: SK-OV-3 ovarian
[48] = system: SN12C renal
[49] = system: SNB-19 CNS
[50] = system: SNB-75 CNS
[51] = system: SW-620 colon
[52] = system: T-47D breast
[53] = system: TK-10 renal
[54] = system: U251 CNS
[55] = system: UACC-257 melanoma
[56] = system: UACC-62 melanoma
[57] = system: UO-31 renal

COc1ccc(C(SC2C(O)C(CO)OC2n2ccc(=O)[nH]c2=O)(c2ccccc2)c2ccc(OC)cc2)cc1 (configuration not stated)
TGI [1]: 32 µM | TGI [2]: 45.4 µM | TGI [3]: 81.5 µM | TGI [4]: 33.6 µM | TGI [5]: > 100 µM | TGI [6]: > 100 µM | TGI [7]: 34.9 µM | TGI [8]: 34.4 µM | TGI [9]: 41.8 µM | TGI [10]: 30.3 µM | TGI [11]: 29.2 µM | TGI [12]: 33.3 µM | TGI [13]: 68.4 µM | TGI [14]: 40.8 µM | TGI [15]: 29.7 µM | TGI [16]: 53.6 µM | TGI [17]: 35.6 µM | TGI [18]: 40.9 µM | TGI [19]: > 100 µM | TGI [20]: 39.2 µM | TGI [21]: 31.5 µM | TGI [22]: 25.8 µM | TGI [23]: 36.7 µM | TGI [24]: 43.7 µM | TGI [25]: 31 µM | TGI [26]: 22.8 µM | TGI [27]: 26.1 µM | TGI [28]: > 100 µM | TGI [29]: 31.9 µM | TGI [30]: 39.6 µM | TGI [31]: 26 µM | TGI [32]: 31.9 µM | TGI [33]: 47.1 µM | TGI [34]: 37.1 µM | TGI [35]: 64.9 µM | TGI [36]: 39.7 µM | TGI [37]: 45.5 µM | TGI [38]: 33 µM | TGI [39]: > 100 µM | TGI [40]: 32.4 µM | TGI [41]: 40.1 µM | TGI [42]: 43.3 µM | TGI [43]: 39.2 µM | TGI [44]: 31.4 µM | TGI [45]: 53.9 µM | TGI [46]: 29 µM | TGI [47]: 84.7 µM | TGI [48]: 32.4 µM | TGI [49]: 41 µM | TGI [50]: 48.9 µM | TGI [51]: 63.6 µM | TGI [52]: 48.7 µM | TGI [53]: 57 µM | TGI [54]: 30 µM | TGI [55]: 33.5 µM | TGI [56]: 33.3 µM | TGI [57]: 33.4 µM
